In patent US20260285815A1, “Imidazolidinyl Vanillic Acid Ether Derivative and Use Thereof” (priority 2022, published 2026):
Where two headings read alike, the source gives them in different places.

Experiments:
[1] = in vivo; design: species or system SD rats; details: rat, po, 15 mg/kg
Procedure: Eighteen SD male rats (purchased from Weitong Lihua Experimental Animal Technology Co., Ltd., certificate number: 20211103Aazz0619000910), weighing 240-280 g, were randomly divided into 6 groups, with 3 rats in each group. The animals were fasted overnight before administration. On the day of administration, the compounds of Examples 3, 4, 5, 6, Compound A. and Compound A methyl ester were gavaged to the animals in each groups respectively, and the dosage was 15 mg/kg (calculated as Compound A). Before administration and 0.25, 0.5, 1, 2, 4, 6, 8, and 24 h after administration, 0.15 mL of blood was collected from the animals through the jugular sinus and placed in an EDTA-K2 anticoagulant tube containing 3 μL of dichlorvos aqueous solution (10 mg/mL). After centrifugation, plasma was collected, and was placed in the sample, and then 10 μL of plasma sample was taken, 500 μL of acetonitrile containing IS (verapamil 5 ng·mL^−1, glibenclamide 50 ng·mL^−1, tolbutamide 200 ng·mL^−1, and diclofenac 200 ng·mL^−1) was added, vortexed for 10 min, and then centrifuged at 3700 rpm for 10 min, and then 70 μL of supernatant and 70 μL of water were added, and vortexed for 10 min. An aliquot of 2 μL of the mixture was injected into the LC-MS/MS system (Triple Quad 5500+: LC-MS-MS-022) to measure blood concentration of the compounds. WinNonlin 8.0 software was used to analyze the pharmacokinetic parameters.

[2] = system: arteriovenous bypass thrombi in rats; experiment: Antithrombotic activity in vivo: arteriovenous bypass thrombosis in rats; details: for inhibition at 15 mg/kg: Rattus norvegicus, po
Procedure: Each group was given corresponding drugs by gavage (dosage was 15 mg/kg), and the normal control group was given an equal volume of solvent, all of which were given by single gavage. One hour after the last administration, the rats were anesthetized with 3% chloral hydrate intraperitoneally, and the right common carotid artery and left external jugular vein were isolated in a supine position. A polyethylene tube was taken with an inner diameter of 1.5 mm and a length of 10 cm, a 6 cm long silk thread (pre-weighed) was inserted into it, and the polyethylene tube was filled with normal saline solution of heparin (50 U/ml). One end of the polyethylene tube was inserted into the left external jugular vein, heparin (50 U/kg) was injected, and the other end was inserted into the right common carotid artery. After blood flow was opened for 15 minutes, the blood flow was interrupted and the silk thread was quickly taken out and weighed. The total weight minus the original silk thread weight was the wet weight of the thrombus. The silk thread was placed in an oven for drying at 70° C. The dry weight of the thrombus was obtained by weighing the silk thread minus the original silk thread weight, and the inhibition rate was calculated.

[3] = background statement; cited from earlier work
[4] = system: adenosine diphosphate (ADP)-induced platelet aggregation; details: rabbit; from CN101851209B; cited from earlier work
[5] = background statement; cited from earlier work; remark: listed apart in the source

Structure (SMILES)	AUC(0-inf) [1] [ng·h/mL]	AUC(0-t) [1] [ng·h/mL]	Cmax [1] [ng/mL]	F (bioavailability relative to compound A) [1] [%]	MRT last [1] [h]	Tmax [1] [min]	half-life [1] [min]	inhibition at 15 mg/kg ([2]; read-out: Inhibition rate (thrombus dry weight)) [%]	inhibition at 15 mg/kg ([2]; read-out: Inhibition rate (thrombus wet weight)) [%]	Thrombus wet weight ([2]; rat arteriovenous bypass, 15 mg/kg single gavage, 1 h after dosing, 15 min blood flow, x ± s, n = 8)	Thrombus dry weight ([2]; rat arteriovenous bypass, 15 mg/kg single gavage, thread dried at 70° C., x ± s, n = 8)	Oral bioavailability [3]	Inhibitory effect on ADP-induced platelet aggregation [4]	Ability to penetrate the blood-brain barrier [5]
COc1cc(C(=O)OCCCCCC(=O)O)ccc1OCCn1ccnc1 [Example 3, 6-(4-(2-(1H-imidazol-1-yl)ethoxy)-3-methoxybenzoyloxy)hexanoic acid]	3380	3230	8590	200.37	0.47	15	184	–	–	–	–	–	–	–
COc1cc(C(=O)O)ccc1OCCn1ccnc1 [Compound A, reference compound]	1720	1610	604	–	5.4	21	643	36	31	69.8 ± 11.2^★★ mg	21.8 ± 6.0^★★ mg	low	significant inhibitory effect	weak
COc1cc(C(=O)OC(C)OC(C)=O)ccc1OCCn1ccnc1 (centres unmarked) [Example 6, 1-acetoxyethyl-4-(2-(1H-imidazol-1-yl)ethoxy)-3-methoxybenzoate]	3170	2850	8140	176.8	1.09	15	292	–	–	–	–	–	–	–

Further lines, with some results ahead:

AUC(0-inf) [1] [ng·h/mL]	AUC(0-t) [1] [ng·h/mL]	Cmax [1] [ng/mL]	F (bioavailability relative to compound A) [1] [%]	MRT last [1] [h]	Tmax [1] [min]	half-life [1] [min]	Structure (SMILES)	inhibition at 15 mg/kg ([2]; read-out: Inhibition rate (thrombus dry weight)) [%]	inhibition at 15 mg/kg ([2]; read-out: Inhibition rate (thrombus wet weight)) [%]	Thrombus wet weight ([2]; rat arteriovenous bypass, 15 mg/kg single gavage, 1 h after dosing, 15 min blood flow, x ± s, n = 8)	Thrombus dry weight ([2]; rat arteriovenous bypass, 15 mg/kg single gavage, thread dried at 70° C., x ± s, n = 8)	Oral bioavailability [3]	Inhibitory effect on ADP-induced platelet aggregation [4]	Ability to penetrate the blood-brain barrier [5]
3000	2890	7080	179.28	0.85	15	206	COc1cc(C(=O)OCOC(=O)OC(C)C)ccc1OCCn1ccnc1 [Example 5, ((isopropoxycarbonyl)oxy)methyl-4-(2-(1H-imidazol-1-yl)ethoxy)-3-methoxybenzoate]	–	–	–	–	–	–	–
1600	1490	513	92.18	6.5	27.6	504	COC(=O)c1ccc(OCCn2ccnc2)c(OC)c1 [Compound A methyl ester, reference compound]	–	–	–	–	–	–	–
